What was measured:
C. violaceum CV026 = experiment: Violacein extraction assay (QS-mediated violacein production), mutant strain with exogenous autoinducer; format: cell-based, Chromobacterium violaceum; conditions: Chromobacterium violaceum, CV026, 24 h, read-out: Inhibition-% of violacein production
Description: The initial screening of compound library was conducted using two strains of C. violaceum as model bacterium, and two assays (violacein extraction and resazurin staining) in parallel as recently optimized in [26]. For the screening assays, overnight cultures of C. violaceum were diluted in LB broth supplemented with yeast extract (LBY) (0.1% w/v, Sigma Aldrich, St. Louis, MO, USA). Culture of C. violaceum CV026 was further supplemented with 0.5 µM N-(β-ketocaproyl)-L-Homoserine lactone (3-O-C6-(L)-HSL, Cayman chemicals, Ann Arbor, MI, USA) to induce the violacein production. Bacteria (10^6 CFU/mL) was exposed to compounds (400 µM) in a total volume of 200 µL in 96-microtiter well plates (Nunc, Roskilde, Denmark), and incubated at 27 °C, with shaking at 200 rpm for 24 h. DMSO was added in untreated control wells and bacteria-free wells with only LBY were included controls. Additionally, autoinducer-free wells containing only bacteria were included in C. violaceum CV026 plates. Plates were prepared in duplicates. Quercetin dihydrate (Carl Roth GmbH, Karlsruhe, Germany) at 400 µM was used as positive control in violacein extraction assay, and azithromycin (Cayman chemicals, Ann Arbor, MI, USA) at 10 µM in viability assay. Both control compounds were prepared in DMSO. DMSO concentration was 2.5% throughout the experiments.
After incubation period of 24 h, plates were centrifuged (Allegra™ X-12R Benchtop centrifuge, Beckman Coulter Inc., Fullerton, CA, USA) at 3000 rpm for 10 min to precipitate the violacein. Supernatants were discarded from the wells by pipetting, and pellets were re-suspended in 200 μL of 96% ethanol by scraping and mixing followed by centrifugation (3000 rpm, 10 min). Thereafter, 100 μL of supernatants were transferred to sterile 96-microtiter well plates, and violacein was quantified by reading the optical density at 595 nm using Varioskan Flash. Inhibition of violacein production was expressed as inhibition percentages of the untreated biofilms (Equation (1)):Inhibition-% = [(untreated control OD595 − sample OD595)/(untreated control OD595 − media control OD595)] × 100%(1) in which untreated control = C. violaceum + DMSO, media control = LBY, and sample = C. violaceum treated with a compound. Later on, violacein extraction assay was also utilized for the determination of half inhibitory concentrations of the compounds.

[1] = system: P. aeruginosa and E. coli biofilms; experiment: Transmitted light microscopy of biofilms; format: cell-based, Pseudomonas aeruginosa, Escherichia coli; conditions: 100 µM, all the tested strains, crystal violet, 40×
Description: For imaging, bacteria were allowed to adhere and form microcolonies on coverslips. Briefly, 5 mL of diluted cultures (10^6 CFU/mL) of P. aeruginosa and E. coli was added to 6-well plates containing glass coverslips (22 mm × 22 mm). The plates were incubated at 37 °C without shaking for 2 h. Thereafter, bacterial suspensions were removed, and the wells were washed once with PBS. Fresh LB with and without the lead compounds at a final concentration of 100 µM was added to the wells, and the plates were incubated at 37 °C for 22 h. At the end of 24 h, coverslips were rinsed three times with MQ-water and air dried followed by staining with 0.23% (v/v) crystal violet solution. Coverslips were allowed to dry and visualized under a Transmitted Light Microscope (EVOS® XL Imaging System, InvitrogenTM, Thermo Fisher Scientific, San Jose, CA, USA) at a magnification of 40×.

P. aeruginosa PAO1 = experiment: Swimming motility assay; format: cell-based; conditions: Pseudomonas aeruginosa, highest test concentration (400 µM)
Description: Assays were performed according to the protocols previously described in [30, 74] with some modifications. The swarming agar was prepared in MQ-water consisting of 0.3% (w/v) agar, 1% (w/v) peptone, 0.5% (w/v) yeast extract and 0.5% (w/v) sodium chloride, and the swimming agar similarly but without yeast extract. Compounds at a final concentration of 400 µM and 100 µM were pre-mixed with 5 mL of agar, and poured over solidified LB agar plates (10 mL/petri dish) as overlays. The plates were allowed to dry at 30 °C for three hours followed by point inoculation with 2 µL of P. aeruginosa PAO1 (~10^8 CFU/mL) and incubation at 37 °C for 18 h. Quercetin was used as a control. Diameters of the swarming and swimming zones were measured after the incubation periods.

[2] = system: human lung (HL) epithelial cells; experiment: Cytotoxicity testing (CellTiter Glo); format: cell-based; conditions: 24 h exposure
Description: (§1) Human lung (HL) epithelial cells were grown in RPMI 1640 (Biowhittaker, Lonza, Viewers, Bornem, Belgium) supplemented with 10% inactivated fetal bovine serum (FBS), 2 mM L-glutamine and gentamycin 20 µg/mL, and mouse monocyte macrophage RAW 264.7 cells in DMEM medium supplemented with 10% FBS and 20 µg/mL gentamycin. Cells (3 × 10^5 cells/mL) were seeded into 96-microtiter well plates (Cellstar TC, Greiner Bio-One GmbH, Frickenhausen, Germany), 200 µL per well, and incubated at 37 °C in 5% CO2 24 h before exposure to the compounds. After the incubation, culture medium was discarded, the wells were washed with PBS, and the compound dilutions prepared in culture media were added as triplicates to a final volume of 200 µL. Usnic acid (200 µM, Sigma Aldrich, St. Louis, MO, USA) was included as positive control and DMSO (1%) as solvent control. Plates were incubated for additional 24 h. At the end of 24 h, media was removed, wells were washed twice with PBS and 100 µL of PBS was added. CellTiter Glo® reagent (Promega, Madison, WI, USA) was prepared according to manufacturer’s instructions, and 100 µL was added to the wells. The plates were shaken for two minutes and equilibrated at room temperature for 10 min prior to measuring the luminescence using Varioskan LUX multimode plate reader (Thermo Scientific, Vantaa, Finland). Inhibition of cell viability was calculated in relation to the untreated cells.

[3] = system: mouse monocyte macrophage (RAW 264.7) cells; experiment: Cytotoxicity testing (CellTiter Glo); format: cell-based; conditions: 24 h exposure
Description: as §1

C. violaceum ATCC 31532 = experiment: Violacein extraction assay (QS-mediated violacein production); format: cell-based; conditions: Chromobacterium violaceum, ATCC31532, 40 µM, C. violaceum ATCC 31532, mean ± SD of three independent tests; read-out: Inhibition-% of violacein production
[4] = system: RhlI/RhlR controlled rhamnolipid biosynthesis in P. aeruginosa; set-up: method as in ref 73 = [73]; 73. Manner S. Fallarero A. Abo Akademi University and University of Helsinki, Finland Evaluation of the Effects of the Leads in Rhamnolipid Biosynthesis Personal communication 2017; conditions: personal communication ref 73; cited from earlier work
[5] = system: Staphylococcus aureus biofilms; set-up: method as in PMID 24071942; conditions: cited from earlier work

Row | Structure (SMILES) | inhibition at 400 µM (C. violaceum CV026) | Effect on biofilm structure and formation [1] | inhibition at 400 µM (P. aeruginosa PAO1) | Inhibition-% of cell viability ([2]; 10 µM) | Inhibition-% of cell viability ([2]; 40 µM) | Inhibition-% of cell viability ([2]; 100 µM) | Inhibition-% of cell viability ([3]; 10 µM) | Inhibition-% of cell viability ([3]; 40 µM) | inhibition at 40 µM (C. violaceum ATCC 31532) | Effect on rhamnolipid biosynthesis [4] | Anti-biofilm activity against S. aureus [5] | Inhibition-% of cell viability ([3]; 100 µM)
1 | CCC(=O)Oc1c(-c2ccccc2Cl)oc2ccccc2c1=O [Compound 2117, 2-(2-chlorophenyl)-4-oxochromen-3-yl propanoate] | 102% | alteration of biofilm structure and reduced biofilm formation | 28.1% | N.I. | N.I. | 11.2 ± 4.9% | N.I. | N.I. | > 90% | did not affect | inactives | 
2 | CCCCCCCCCC(=O)Oc1c(-c2ccc(OC)cc2)oc2ccccc2c1=O [Compound 2896, 2-(4-methoxyphenyl)-4-oxochromen-3-yl decanoate] | 91.2% | alteration of biofilm structure and reduced biofilm formation | 33.9% | N.I. | N.I. | did not display any effects on the cell viability and N.I. | N.I. | N.I. | 83.5 ± 1.4% | did not affect | inactives | did not display any effects on the cell viability and N.I.

— article PMC5983823, “Screening of Natural Product Derivatives Identifies Two Structurally Related Flavonoids as Potent Quorum Sensing Inhibitors against Gram-Negative Bacteria” (International Journal of Molecular Sciences, 2018)
